In publication PMC2836812 (Chemical biology & drug design, 2010) one finds IC50 data, which are given here for 2 molecules.

SMILES strings stand for the structures. Where two headings read alike, the source gives them in different places.

Experiment [1] deals with T1, ScPFTase (protein farnesyltransferase), β-subunit (Saccharomyces cerevisiae, UniProt P22007).
T1 sequence (P22007 1-431): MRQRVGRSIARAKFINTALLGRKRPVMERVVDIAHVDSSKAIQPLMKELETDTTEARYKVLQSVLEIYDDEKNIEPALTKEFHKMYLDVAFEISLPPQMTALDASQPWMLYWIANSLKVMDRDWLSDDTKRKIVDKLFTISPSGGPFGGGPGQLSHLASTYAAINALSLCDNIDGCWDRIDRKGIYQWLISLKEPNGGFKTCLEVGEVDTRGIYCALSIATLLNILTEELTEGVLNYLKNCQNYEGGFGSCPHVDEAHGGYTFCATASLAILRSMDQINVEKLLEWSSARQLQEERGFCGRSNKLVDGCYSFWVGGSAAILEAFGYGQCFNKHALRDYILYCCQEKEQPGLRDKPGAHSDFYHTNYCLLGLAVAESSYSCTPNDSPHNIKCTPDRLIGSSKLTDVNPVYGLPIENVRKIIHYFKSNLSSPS
T1 sequence (P29703 1-316 partner): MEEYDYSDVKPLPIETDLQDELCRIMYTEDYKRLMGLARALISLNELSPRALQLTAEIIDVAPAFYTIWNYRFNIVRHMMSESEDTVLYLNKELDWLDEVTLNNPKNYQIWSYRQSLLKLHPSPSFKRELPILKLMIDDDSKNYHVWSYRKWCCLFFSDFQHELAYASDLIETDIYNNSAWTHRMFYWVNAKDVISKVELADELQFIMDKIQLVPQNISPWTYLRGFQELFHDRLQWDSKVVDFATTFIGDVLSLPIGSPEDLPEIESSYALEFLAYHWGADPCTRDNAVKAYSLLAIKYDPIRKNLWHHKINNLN
Description: continuous fluorescence assay with N-dansyl-GCVIA. The experiment is classed as biochemical.

In experiment [2] the target is T1, ScPFTase (protein farnesyltransferase), β-subunit. Kind of experiment: continuous fluorescence assay with N-dansyl-GCVIA. The experiment is classed as biochemical. This is another data set of the same source.

Molecule `C/C(=C\COP(=O)(O)OP(=O)(O)O)CC/C=C(\C)CNC(=O)C(=[N+]=[N-])C(F)(F)F` [compound 3, (E,E)-8-N-(2-Diazo-3,3,3-trifluoropropionamido)-3,7-dimethyl-2,6-octadienyl-1-diphosphate] returned an IC50 in experiment [1] of 50 µM. For `C/C(=C\COP(=O)(O)OP(=O)(O)O)CCCC(C)COC(=O)C(=[N+]=[N-])C(F)(F)F` (racemic) [compound 4, (E)-8-O-(2-Diazo-3,3,3-trifluoropropanoyloxy)-3,7-dimethyl-2-octenyl-1-diphosphate], in experiment [2], the half-maximal inhibitory concentration (IC50) was 30 µM.
